Test results taken from EP0482939A1, “Isoquinolinone derivative” (ONO PHARMACEUTICAL CO., LTD., priority 1990, dated 1992).

What was measured:
5-HT3 receptor = molecular target: T1, 5-HT3 receptor (Rattus norvegicus, UniProt P35563); test: Suppression of 5-HT-induced reflex bradycardia in urethane-anesthetised rats (antagonistic activity against 5-HT3 receptor in vivo); parameters: species or system Male Wister rat; conditions: intravenous administration, suppression of reflex bradycardia generated by i.v. 5-HT, read-out: IC50 i.v.
T1 construct: from tissue
T1 sequence (P35563 24-483): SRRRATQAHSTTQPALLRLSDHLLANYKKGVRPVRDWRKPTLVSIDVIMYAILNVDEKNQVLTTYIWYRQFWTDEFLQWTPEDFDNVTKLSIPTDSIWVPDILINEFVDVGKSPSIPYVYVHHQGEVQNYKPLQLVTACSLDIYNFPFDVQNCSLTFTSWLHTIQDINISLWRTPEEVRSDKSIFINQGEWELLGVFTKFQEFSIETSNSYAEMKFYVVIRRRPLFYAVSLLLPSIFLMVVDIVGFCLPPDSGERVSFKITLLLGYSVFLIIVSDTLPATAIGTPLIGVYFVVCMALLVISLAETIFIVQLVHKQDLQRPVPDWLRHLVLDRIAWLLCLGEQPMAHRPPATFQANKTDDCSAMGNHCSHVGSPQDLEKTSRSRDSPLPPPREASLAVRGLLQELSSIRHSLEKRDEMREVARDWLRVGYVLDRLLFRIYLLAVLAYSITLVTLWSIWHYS
Method: Male Wister rat was urethane-anesthetised and fixed. Cannulas were inserted in the carotoid artery and in the thigh vein as used for recording of blood pressure and heart beat, and for the administration of the test compounds, respectively.
Several doses of a compound of the present invention were administered from the vein. 5-HT was administered rapidly to the vein, 2 mins. after insertion of cannulas. The suppression effect of the compounds were confirmed by the measurement of the reflex bradycardia generated (Nature 316, 126 (1985)).

[1] = Acute toxicity by intravenous administration; conditions: mouse, in vivo; intravenous administration in mice
Method: Tests confirmed that the toxicity of the compounds of the present invention is very low. Therefore, the compounds of the present invention may be considered to be sufficiently safe and suitable for pharmaceutical use.
For example, the value of acute toxicity (LD50) of the compound prepared as in Example 1 was 50 mg/kg animal body weight by intravenous administration in mice.

Row | Compound | ED50 (5-HT3 receptor) [mg/kg] | LD50 [1] [mg/kg]
1 | CNc1cc2ccn(Cc3nc[nH]c3C)c(=O)c2cc1Cl.Cl.Cl [1(d), 6-methylamino-7-chloro-2-(5-methyl-imidazol-4-ylmethyl)-1,2-dihydro-isoquinolin-1-one dihydrochloride] | 0.49 | 
2 | CNc1cc(Cl)cc2c(=O)n(Cc3nc[nH]c3C)ccc12.Cl.Cl [1(e), 5-methylamino-7-chloro-2-(5-methyl-imidazol-4-ylmethyl)-1,2-dihydro-isoquinolin-1-one dihydrochloride] | 1.44 | 
3 | CC(=O)Nc1cc2ccn(Cc3nc[nH]c3C)c(=O)c2cc1Cl [Example 1(a)] | 0.99 | 
4 | Cc1[nH]cnc1Cn1ccc2cc(N)c(Cl)cc2c1=O.Cl.Cl [Example 1, 6-amino-7-chloro-2-(5-methylimidazol-4-ylmethyl)-1,2-dihydroisoquinolin-1-one dihydrochloride] | 0.39 | 50
